Experimental findings from patent US5494804A, “Differential determination process of α-amylase isoenzyme activities” (Kikkoman Corporation, priority 1993, dated 1996) are described below.

As usually defined, the Km is the substrate concentration at which the rate is half of its maximum. For orientation: inhibition means how much of the control response was suppressed.

The target of experiment [1] is T1, human S-type α-amylase (Homo sapiens, UniProt P0DUB6).
T1 construct: purchased International Reagents Corp., Japan CARIBZYME AMY
T1 sequence (P0DUB6 16-511): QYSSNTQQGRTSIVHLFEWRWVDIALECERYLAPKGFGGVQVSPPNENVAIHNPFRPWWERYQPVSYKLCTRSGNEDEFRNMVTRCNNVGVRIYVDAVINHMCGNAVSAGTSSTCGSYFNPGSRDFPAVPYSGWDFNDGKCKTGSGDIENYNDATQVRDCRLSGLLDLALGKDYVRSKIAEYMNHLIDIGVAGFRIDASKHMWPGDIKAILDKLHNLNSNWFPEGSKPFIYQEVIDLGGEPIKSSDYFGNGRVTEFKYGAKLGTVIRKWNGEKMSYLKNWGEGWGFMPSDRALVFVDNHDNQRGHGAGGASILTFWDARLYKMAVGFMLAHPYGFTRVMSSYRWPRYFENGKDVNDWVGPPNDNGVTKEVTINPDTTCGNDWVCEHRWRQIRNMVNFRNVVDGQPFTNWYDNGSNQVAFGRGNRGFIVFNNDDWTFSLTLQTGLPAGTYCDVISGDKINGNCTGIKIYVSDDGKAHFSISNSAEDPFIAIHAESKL
Put plainly: Km and reaction rate constant ks of the substrate for measuring α-amylase activity, S-type. Type of experiment: biochemical. As to the method: (§1) In a 50 mM phosphate buffer (pH 7.0) containing 40 mM NaCl and 2 mM MgCl2 was dissolved N3G5-CNP obtained in Informative Example 1 to prepare substrate solutions for measuring α-amylase activity in a concentration of 0.16, 0.32, 0.48, 0.64, 0.80 and 0.96 mM.
(§2) A commercially available glucoamylase derived from Rhizopus sp. and β-glucosidase derived from almond were mixed and dissolved in a 50 mM phosphate buffer (pH 7.0) containing 40 mM NaCl and 2 mM MgCl2 to the concentration of the glucoamylase and β-glucosidase being 163 units/ml and 16.3 units/ml, respectively. In this connection, these commercially available glucoamylase and β-glucosidase used were manufactured by Toyobo Co., Ltd.
(§3) Each of commercially available human P-type α-amylase and human S-type α-amylase was dissolved in distilled water to ensure that the concentration of each amylase was about 150 IU/liter.
The commercially available human α-amylases used were CARIBZYME AMY manufactured by International Reagents Corp., Japan.
The molecular extinction coefficient (ε) of 2-chloro-4-nitrophenol is defined 16,100 and for α-amylase activity the amount of enzyme which decomposes 1 μmol of G5-CNP at 37° C. for a minute is defined as 1 International Unit (IU) (and so forth).
(§4) As for the human P-type α-amylase solution and human S-type α-amylase solution, 1.0 ml of a coupled enzyme solution was added to and stirred with 250 μl of the α-amylase solution, warmed to 37° C. for 1 minute, and 2.0 ml of each concentration of the N3G5-CNP solution was added and stirred, warmed to 37° C. for 2.5 minutes to measure the variable absorbances at 400 nm for 2 minutes. […]
For six solutions of each of the human P-type α-amylase and the human S-type α-amylase, 1.0 ml of the coupled enzyme solution was added to and stirred with 250 μl of the α-amylase solution and warmed to 37° C. for 1 minute, respectively. 2.0 ml of N3G5-CNP solution was added and stirred, and the mixture was warmed to 37° C. for 2.5 minutes to measure the variable absorbances at 400 nm for 2 minutes. […]

For experiment [2], the system named is α-amylase. Put plainly: Km value of G5-CNP (isoenzyme not stated). Type of experiment: biochemical, human. The following applies: α-glucosidase instead of glucoamylase as coupled enzyme. Here is the method: As for the human P-type α-amylase solution and human S-type α-amylase solution, 1.0 ml of a coupled enzyme solution was added to and stirred with 250 μl of the α-amylase solution, warmed to 37° C. for 1 minute, and 2.0 ml of each concentration of the N3G5-CNP solution was added and stirred, warmed to 37° C. for 2.5 minutes to measure the variable absorbances at 400 nm for 2 minutes. At the same time, a blank test was carried out with 250 μl of distilled water instead of the α-amylase solution. The measurements thus obtained were plotted by the Lineweaver-Burk method to calculate the Km value by the method of least squares.
The Km value and the reaction rate constants (kp and ks) of G5-CNP and the inhibition constants a and b of DOG3 were measured in the same manner as in Example 1 except that a commercially available G5-CNP [manufactured by Daiichi Pure Chemicals Co., Ltd.] on behalf of N3G5-CNP as the substrate for measuring α-amylase was used and 406 units/liter of α-glucosidase [manufactured by Toyobo Co., Ltd.] was used on behalf of glucoamylase as a coupled enzyme.

In experiment [3] the target is T2, human P-type α-amylase (Homo sapiens, UniProt P04746).
T2 construct: purchased International Reagents Corp., Japan CARIBZYME AMY
T2 sequence (P04746 16-511): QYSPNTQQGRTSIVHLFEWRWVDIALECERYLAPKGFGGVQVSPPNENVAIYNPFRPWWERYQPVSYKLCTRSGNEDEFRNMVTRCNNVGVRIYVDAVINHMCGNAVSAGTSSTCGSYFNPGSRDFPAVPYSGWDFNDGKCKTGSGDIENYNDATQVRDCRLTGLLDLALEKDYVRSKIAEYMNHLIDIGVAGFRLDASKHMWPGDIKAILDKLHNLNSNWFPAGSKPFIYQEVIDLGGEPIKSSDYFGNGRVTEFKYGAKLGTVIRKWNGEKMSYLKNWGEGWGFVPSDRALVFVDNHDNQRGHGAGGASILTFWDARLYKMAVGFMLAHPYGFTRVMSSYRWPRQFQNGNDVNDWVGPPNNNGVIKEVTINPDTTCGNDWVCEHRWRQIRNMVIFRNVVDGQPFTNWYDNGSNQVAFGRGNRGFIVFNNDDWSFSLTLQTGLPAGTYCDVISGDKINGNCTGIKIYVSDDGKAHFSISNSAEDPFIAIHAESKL
Put plainly: Km and reaction rate constant kp of the substrate for measuring α-amylase activity, P-type. Type of experiment: biochemical. Here is the method: as §1, §2, §3
The commercially available human α-amylases used were CARIBZYME AMY manufactured by International Reagents Corp., Japan. […]
as §4

The target of experiment [4] is T2, human P-type α-amylase. Nature of the experiment: Inhibition of human P-type α-amylase by an inhibitor (variable absorbance at 400 nm, chromogenic substrate, coupled enzymes). Type of experiment: biochemical. Here is the method: (§5) (a) Preparation of a mixed solution of the substrate (N3G5-CNP) and the inhibitor DOG3
(§6) N3G5-CNP and DOG3 obtained in Informative Example 2 were dissolved in a 50 mM phosphate buffer (pH 7.0) containing 40 mM NaCl and 2 mM MgCl2 so that the N3G5-CNP has a concentration of 3.25 mM (final concentration of 2.0 mM) and DOG3 has seven concentrations of 0.05, 0.11, 0.54, 1.09, 2.16, 3.25, 5.41 mM (final concentrations of 0.03, 0.07, 0.33, 0.67, 1.33, 2.00 and 3.33 mM, respectively).
(§7) The commercially available human P-type α-amylase and human S-type α-amylase were dissolved in distilled water so that they have a concentration of about 150 IU/liter.
(§8) It was prepared in the same manner as described in (b) in the section (1).
(§9) After 250 μl of the α-amylase solution was admixed with 1.0 ml of the coupled enzyme solution and warmed to 37° C. for 1 minute, 2.0 ml of each of the mixtures (having 7 concentration) of the substrate (N3G5-CNP) and the inhibitor DOG3 was added, stirred and warmed to 37° C. for 2.5 minutes, and the variable absorbance in each sample at 400 nm was measured for 2 minutes.
(§10) The activities of human P-type α-amylase and human S-type α-amylase containing 0 mM of DOG3 (without DOG3) were regarded as 100% and the relative activities of human P-type α-amylase and human S-type α-amylase in different concentrations of DOG3 were obtained from each determined value as mentioned above. In this connection, a open circle means P-type α-amylase and a closed circle means S-type α-amylase. […]
(§11) On the other hand, procedures were carried out in the same manner as described above except that 1.0 ml of the coupled enzyme solution alone was used on behalf of the mixed solution in (c) to obtain the value of T with this method.
(§12) The values of kp, ks, a and b in the wheat-germ inhibitor method were 1.1×10^-3, 1.1×10^-3, 0,262 and 0.726 as a result of the measurement. These values as well as those of T and W obtained in this method were substituted for the equations (3) and (4) to obtain the values of P and S (IU/liter). […]

The target in experiment [5] is T1, human S-type α-amylase. Nature of the experiment: Inhibition of human S-type α-amylase by an inhibitor (variable absorbance at 400 nm, chromogenic substrate, coupled enzymes). Type of experiment: biochemical. Here is the method:
as §5, §6, §7, §8, §9, §10, §11, §12

Where [6] appears, read: α-glucosidase instead of glucoamylase as coupled enzyme.
[7] abbreviates: substrate final concentration 2.0 mM, 37° C., inclination of absorbance versus activity line, glucoamylase and β-glucosidase.

Take `O=[N+]([O-])c1ccc(O[C@@H]2O[C@H](CO)[C@@H](O[C@H]3O[C@H](CO)[C@@H](O[C@H]4O[C@H](CO)[C@@H](O[C@H]5O[C@H](CO)[C@@H](O[C@H]6O[C@H](CO)[C@@H](O)[C@H](O)[C@H]6O)[C@H](O)[C@H]5O)[C@H](O)[C@H]4O)[C@H](O)[C@H]3O)[C@H](O)[C@H]2O)c(Cl)c1` [G5-CNP, 2-chloro-4-nitrophenyl β-D-maltopentaoside, reference compound]: the “reaction rate constant ks” value in experiment [1] (setting [6]) is 1.2×10^-3. The Michaelis-Menten constant (Km) in experiment [2] was 450 µM. Also, in experiment [3] (setting [6]), the “reaction rate constant kp” value is on record as 1.2×10^-3.
As for `[N-]=[N+]=NC[C@H]1O[C@H](O[C@H]2[C@H](O)[C@@H](O)[C@@H](O[C@H]3[C@H](O)[C@@H](O)[C@@H](O[C@H]4[C@H](O)[C@@H](O)[C@@H](O[C@H]5[C@H](O)[C@@H](O)[C@H](Oc6ccc([N+](=O)[O-])cc6Cl)O[C@@H]5CO)O[C@@H]4CO)O[C@@H]3CO)O[C@@H]2CO)[C@H](O)[C@@H](O)[C@@H]1O` [N3G5-CNP, 2-chloro-4-nitro-phenyl 6^5-azido-6^5-deoxy-β-D-maltopentaoside], the Km in experiment [1] (Lineweaver-Burk, 37° C., pH 7.0, glucoamylase and β-glucosidase as coupled enzymes) was found to be 270 µM. In experiment [1] (setting [7]), the “reaction rate constant ks” value was 1.1×10^-3. Also, the “reaction rate constant kp” value in experiment [3] (setting [7]) was 1.1×10^-3.
For `C[C@H]1O[C@H](O[C@H]2[C@H](O)[C@@H](O)[C@@H](O[C@H]3[C@H](O)[C@@H](O)C(O)O[C@@H]3CO)O[C@@H]2CO)[C@H](O)[C@@H](O)[C@@H]1O` (stereo partly drawn) [DOG3, O-6-deoxy-α-D-glucopyranosyl-(1→4)-O-α-D-glucopyranosyl-(1→4)-D-glucose], the activity at 330 µM in experiment [4] (DOG3 0.33 mM final, substrate N3G5-CNP 2.0 mM final, 37° C., pH 7.0, read-out: relative activity of human P-type α-amylase (without DOG3 = 100%)) amounted to 13.1%; in experiment [5] (DOG3 0.33 mM final, substrate N3G5-CNP 2.0 mM final, 37° C., pH 7.0, read-out: relative activity of human S-type α-amylase (without DOG3 = 100%)) it was 67.9%. Also, the “difference of the relative activities of P-type and S-type α-amylases (maximum)” value in experiment [4] (DOG3 0.33 mM, substrate N3G5-CNP, S-type minus P-type, as fraction) worked out at 0.548. Moreover, the inhibition at 500 µM in experiment [4] (DOG3 0.50 mM, substrate G5-CNP, α-glucosidase and β-glucosidase as coupled enzymes, read-out: inhibition constant a (to P-type α-amylase)) was 61.7%; in experiment [5] (DOG3 0.50 mM, substrate G5-CNP, α-glucosidase and β-glucosidase as coupled enzymes, read-out: inhibition constant b (to S-type α-amylase)), 14.1%. In addition, the inhibition at 330 µM in experiment [4] (pH 7, DOG3 0.33 mM, substrate N3G5-CNP 2.0 mM, read-out: inhibition constant a (to P-type α-amylase) = 1 - relative activity) came out at 86.9%; in experiment [5] (pH 7, DOG3 0.33 mM, substrate N3G5-CNP 2.0 mM, read-out: inhibition constant b (to S-type α-amylase) = 1 - relative activity) it was 32.1%.
